The results in this text go back to US10723711B2, “1,1,1-trifluoro-3-hydroxypropan-2-yl carbamate derivatives and 1,1,1-trifluoro-4-hydroxybutan-2-yl carbamate derivatives as MAGL inhibitors” (PFIZER INC., priority 2015, dated 2020).

Where two headings read alike, the source gives them in different places.

Holding throughout (type): biochemical
The target in test [1] is T1, human recombinant Monoacylglycerol Lipase (Homo sapiens, UniProt Q99685).
T1 sequence (Q99685 1-303): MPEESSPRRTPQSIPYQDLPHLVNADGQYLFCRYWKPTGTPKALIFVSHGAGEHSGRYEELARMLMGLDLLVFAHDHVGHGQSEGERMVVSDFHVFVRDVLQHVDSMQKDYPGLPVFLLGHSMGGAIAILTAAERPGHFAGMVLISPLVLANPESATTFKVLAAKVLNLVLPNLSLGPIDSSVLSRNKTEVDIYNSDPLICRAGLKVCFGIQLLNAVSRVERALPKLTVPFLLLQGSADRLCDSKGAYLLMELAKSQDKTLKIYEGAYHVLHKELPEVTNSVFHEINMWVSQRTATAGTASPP
The test is described as follows: MAGL inhibition enzymatic assay, fluorogenic substrate 7-HCA, IC50 at T=0 min or after 30 minute incubation (T=30 min). Conditions: geometric mean of 2-4 determinations unless otherwise indicated. On the procedure:
An equal volume of 7-HCA in assay buffer with 10% DMSO was added either immediately (T=0 min) or after a 30 minute incubation (T=30 min) to initiate the reaction. […] After these dilutions, the final concentration of the test compound ranged from 3 μM to 0.03 nM. […] IC50 values were generated based on a four parameter fit model using ABASE software from IDBS.

For test [2], the target named is T2, human recombinant FAAH (Homo sapiens, UniProt O00519).
T2 construct: purchased Cayman 10010183
T2 sequence (O00519 1-579): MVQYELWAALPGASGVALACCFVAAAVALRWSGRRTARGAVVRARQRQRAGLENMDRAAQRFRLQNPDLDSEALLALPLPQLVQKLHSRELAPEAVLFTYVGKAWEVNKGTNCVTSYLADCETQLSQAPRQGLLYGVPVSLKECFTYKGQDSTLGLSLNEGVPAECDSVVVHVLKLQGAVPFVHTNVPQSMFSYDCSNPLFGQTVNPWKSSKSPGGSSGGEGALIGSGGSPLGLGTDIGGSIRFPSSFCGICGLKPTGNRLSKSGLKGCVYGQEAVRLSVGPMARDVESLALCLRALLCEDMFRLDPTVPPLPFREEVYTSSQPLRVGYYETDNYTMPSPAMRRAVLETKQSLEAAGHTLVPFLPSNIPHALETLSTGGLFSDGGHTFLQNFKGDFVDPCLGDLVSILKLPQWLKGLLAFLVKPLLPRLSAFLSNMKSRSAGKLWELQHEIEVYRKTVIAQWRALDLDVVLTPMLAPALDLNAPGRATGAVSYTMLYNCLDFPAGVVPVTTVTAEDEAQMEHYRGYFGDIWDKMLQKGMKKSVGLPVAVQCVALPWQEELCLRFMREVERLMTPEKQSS
The test is described as follows: FAAH inhibition enzymatic assay, fluorescent substrate Arachidonoyl-AMC, 30 minute incubation. Conditions: T = 30 min (30 minute incubation); geometric mean of 2-4 determinations unless otherwise indicated.

Test [3] deals with T1, human recombinant Monoacylglycerol Lipase. The test can be described thus: MAGL inactivation, enzyme progress curves, kinact/KI. The note with it: from enzyme progress curves, T = 0 min protocol; geometric mean of 2-4 determinations unless otherwise indicated. The gist of the method: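 Human recombinant MAGL ([…]) with compound, 7-HCA substrate (final 5 μM) added immediately (T=0 min), in pH 7.4 HEPES buffer with 0.1% Triton X-100 and 25% glycerin. Fluorescence (Ex/Em 340/465) was read every minute over 60 min, giving progress curves at decreasing compound concentrations (final 3 μM to 0.03 nM).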

Where [4] appears, read: T = 0 min (substrate added immediately), read-out: MAGL (T = 0 min) IC50.
Where [5] appears, read: T = 30 min (30 minute incubation), read-out: MAGL (T = 30 min) IC50.

For orientation: IC50 means the concentration at which inhibition is half-maximal. As for `C#Cc1ccc(-n2ccc([C@H]3[C@@H]4CN(C(=O)O[C@H](CO)C(F)(F)F)C[C@@H]43)n2)cc1` [Example 81], the IC50 in test [1] (setting [4]) was found to be 8 nM; in test [1] (setting [5]), 1 nM; in test [2], 7540 nM. For the same compound, the “MAGL kinact/KI” value in test [3] is on record as 45138 1/s per M.

Consider `O=C(O[C@H](CO)C(F)(F)F)N1CCC2(CC1)CN(S(=O)(=O)c1cccc(Cl)c1)CCO2` [Example 83], for which the results for the IC50 in test [1] (setting [4]), in test [1] (setting [5]) and in test [2] were 19 nM, 2 nM and greater than 30000 nM, respectively. Further, the “MAGL kinact/KI” value in test [3] is 21997^d 1/s per M.

Take `O=C(O[C@H](CO)C(F)(F)F)N1CCC2(CC1)CN(S(=O)(=O)c1ccccc1F)CCO2` [Example 84]: the IC50 is 26 nM in test [1] (setting [4]), 2 nM in test [1] (setting [5]) and 19200 nM in test [2]. Besides, the “MAGL kinact/KI” value in test [3] was 49166 1/s per M.

On to `CCN([C@H]1COC2(CCN(C(=O)O[C@H](CO)C(F)(F)F)CC2)C1)S(=O)(=O)c1ccccc1` [Example 92, (2R)-1,1,1-Trifluoro-3-hydroxypropan-2-yl (3R)-3-[ethyl(phenylsulfonyl)amino]-1-oxa-8-azaspiro[4.5]decane-8-carboxylate], for which the IC50 in test [1] (setting [4]) was 6 nM; in test [1] (setting [5]), 1 nM; in test [2], greater than 30000 nM. Moreover, in test [3], the “MAGL kinact/KI” value is on record as 215500 1/s per M.

For the compound `CN([C@H]1COC2(CCN(C(=O)O[C@H](CO)C(F)(F)F)CC2)C1)S(=O)(=O)C1CC1` [Example 93, (2R)-1,1,1-Trifluoro-3-hydroxypropan-2-yl (3R)-3-[(cyclopropylsulfonyl)(methyl)amino]-1-oxa-8-azaspiro[4.5]decane-8-carboxylate], the IC50 in test [1] (setting [4]) is 318 nM; in test [1] (setting [5]) it was 29 nM; in test [2], greater than 30000 nM. Moreover, in test [3], the “MAGL kinact/KI” value was 3282 1/s per M.

Consider `CN([C@@H]1COC2(CCN(C(=O)O[C@H](CO)C(F)(F)F)CC2)C1)S(=O)(=O)C1CC1` [Example 94, (2R)-1,1,1-Trifluoro-3-hydroxypropan-2-yl (3S)-3-[(cyclopropylsulfonyl)(methyl)amino]-1-oxa-8-azaspiro[4.5]decane-8-carboxylate], for which the IC50 in test [1] (setting [4]) was 316 nM; in test [1] (setting [5]), 27 nM; in test [2], greater than 30000 nM. Further, the “MAGL kinact/KI” value in test [3] is reported as 3764 1/s per M.

Consider `O=C(O[C@H](CO)C(F)(F)F)N1CCC2(CC1)CCN(C(=O)c1ccccc1F)C2` [Example 98, (2R)-1,1,1-Trifluoro-3-hydroxypropan-2-yl 2-(2-fluorobenzoyl)-2,8-diazaspiro[4.5]decane-8-carboxylate], for which the IC50 in test [1] (setting [4]) is 71 nM; in test [1] (setting [5]), 7 nM; in test [2], greater than 30000 nM. Moreover, the “MAGL kinact/KI” value in test [3] is given as 4933 1/s per M.

For the compound `O=C(O[C@H](CO)C(F)(F)F)N1CCC2(CC1)CCN(S(=O)(=O)c1ccccc1)C2` [Example 105, (2R)-1,1,1-Trifluoro-3-hydroxypropan-2-yl 2-(phenylsulfonyl)-2,8-diazaspiro[4.5]decane-8-carboxylate], the IC50 in test [1] (setting [4]) turned out to be 22 nM; in test [1] (setting [5]) it was 2 nM; in test [2], 9760 nM. In addition, in test [3], the “MAGL kinact/KI” value is reported as 59993 1/s per M.

As to `CN([C@H]1COC2(CCN(C(=O)O[C@H](CO)C(F)(F)F)CC2)C1)S(=O)(=O)CC1CC1` [Example 106, (2R)-1,1,1-Trifluoro-3-hydroxypropan-2-yl (3R)-3-{[(cyclopropylmethyl)sulfonyl](methyl)amino}-1-oxa-8-azaspiro[4.5]decane-8-carboxylate], the IC50 was 238 nM in test [1] (setting [4]), 20 nM in test [1] (setting [5]) and greater than 30000 nM in test [2]. Besides, the “MAGL kinact/KI” value in test [3] is listed as 2856 1/s per M.

Turning to `CC(C)N([C@H]1COC2(CCN(C(=O)O[C@H](CO)C(F)(F)F)CC2)C1)S(=O)(=O)c1ccccc1` [Example 107], the IC50 in test [1] (setting [4]) was 10 nM; in test [1] (setting [5]), 1 nM; in test [2], greater than 30000 nM. Moreover, the “MAGL kinact/KI” value in test [3] was 127771 1/s per M.

On to `O=C(O[C@H](CO)C(F)(F)F)N1CCC2(CC1)CCN(C(=O)C1CCCC1)C2` [Example 124], for which the IC50 is 92 nM in test [1] (setting [4]), 10 nM in test [1] (setting [5]) and greater than 30000 nM in test [2]. Also, the “MAGL kinact/KI” value in test [3] is recorded as 6720 1/s per M.

For `O=C(O[C@H](CO)C(F)(F)F)N1CCC2(CC1)CCN(C(=O)c1nccs1)C2` [Example 125], the results for the IC50 in test [1] (setting [4]), in test [1] (setting [5]) and in test [2] were 65 nM, 7 nM and greater than 30000 nM, respectively. Besides, in test [3], the “MAGL kinact/KI” value is given as 5464 1/s per M.

As to `O=C(O[C@H](CO)C(F)(F)F)N1CCC2(CC1)CCN(C(=O)c1ccccc1)C2` [Example 126], the IC50 in test [1] (setting [4]) is 112 nM; in test [1] (setting [5]) it was 12 nM; in test [2], greater than 30000 nM. Also, the “MAGL kinact/KI” value in test [3] is given as 3723 1/s per M.

On to `O=C(O[C@H](CO)C(F)(F)F)N1CCC2(CC1)CCN(C(=O)C1CCC(F)(F)CC1)C2` [Example 127], for which the half-inhibitory concentration (IC50) in test [1] (setting [4]) was 163 nM; in test [1] (setting [5]), 17 nM; in test [2] it was greater than 30000 nM. Moreover, the “MAGL kinact/KI” value in test [3] was 2067 1/s per M.

Turning to `O=C(O[C@H](CO)C(F)(F)F)N1CCC2(CC1)CCN(C(=O)N1CCCC1)C2` [Example 133], the IC50 was determined as 174 nM in test [1] (setting [4]), 20 nM in test [1] (setting [5]) and 4750 nM in test [2]. Also, the “MAGL kinact/KI” value in test [3] was 3614 1/s per M.

Take `O=C(O[C@H](CO)C(F)(F)F)N1CCC2(CC1)CCN(S(=O)(=O)c1nccs1)C2` [Example 134]: the figures for the IC50 in test [1] (setting [4]), in test [1] (setting [5]) and in test [2] were 96 nM, 7 nM and greater than 23400 nM, respectively. Moreover, the “MAGL kinact/KI” value in test [3] is reported as 9930 1/s per M.

In the case of `O=C(O[C@H](CO)C(F)(F)F)N1CCC2(CC1)CCN(S(=O)(=O)c1cccnc1)C2` [Example 135], the IC50 was 168 nM in test [1] (setting [4]), 13 nM in test [1] (setting [5]) and greater than 30000 nM in test [2]. Further, in test [3], the “MAGL kinact/KI” value is listed as 4723 1/s per M.

Take `CN([C@H]1COC2(CCN(C(=O)O[C@H](CO)C(F)(F)F)CC2)C1)S(=O)(=O)c1nccs1` [Example 136]: the IC50 was 52 nM in test [1] (setting [4]), 5 nM in test [1] (setting [5]) and greater than 30000 nM in test [2]. In addition, the “MAGL kinact/KI” value in test [3] was 15516 1/s per M.

Regarding `CN([C@H]1COC2(CCN(C(=O)O[C@H](CO)C(F)(F)F)CC2)C1)S(=O)(=O)CC(F)(F)F` [Example 137], the IC50 is 126 nM in test [1] (setting [4]), 11 nM in test [1] (setting [5]) and greater than 30000 nM in test [2]. In addition, the “MAGL kinact/KI” value in test [3] was 7582 1/s per M.

Turning to `CN([C@H]1COC2(CCN(C(=O)O[C@H](CO)C(F)(F)F)CC2)C1)S(=O)(=O)c1cnn(C)c1` [Example 138], the IC50 stood at 185 nM in test [1] (setting [4]), 15 nM in test [1] (setting [5]) and 16300 nM in test [2]. Besides, in test [3], the “MAGL kinact/KI” value is listed as 2154 1/s per M.

Turning to `CC(C)CS(=O)(=O)N(C)[C@H]1COC2(CCN(C(=O)O[C@H](CO)C(F)(F)F)CC2)C1` [Example 139], the IC50 in test [1] (setting [4]) was 153 nM; in test [1] (setting [5]), 15 nM; in test [2], greater than 30000 nM. Moreover, the “MAGL kinact/KI” value in test [3] is recorded as 3058 1/s per M.

As for `CN([C@H]1COC2(CCN(C(=O)O[C@H](CO)C(F)(F)F)CC2)C1)S(=O)(=O)CC1CCC1` [Example 140], the results for the IC50 in test [1] (setting [4]), in test [1] (setting [5]) and in test [2] were 94 nM, 9 nM and greater than 30000 nM, respectively. Also, the “MAGL kinact/KI” value in test [3] was 4595 1/s per M.
